{
  "source": "patent US20150216903A1",
  "about": "“COMPOUNDS FOR IMPROVED VIRAL TRANSDUCTION” (BLUEBIRD BIO, INC., priority 2012, published 2015)",
  "key": {"CD34+ cells [1]": {"test_system": "CD34+ cells", "test": "7-Day liquid culture, FACS analysis after transduction with GFP+ lentivirus", "assay_type": "cell-based, human", "method": "(§1) One vial of CD34+ cells (AllCells) were thawed by incubating at 37° C. for 1-2 minutes and contents were transferred to 10 mL Stem Cell Growth Media (hereafter referred to as SCGM) in a 15-mL conical tube. Cells were spun for 5 minutes at 1500 RPM in a standard tabletop centrifuge, resuspended in 10 mL SCGM and counted on a hemacytometer. A volume correlating with an appropriate number of cells was transferred to a fresh 15-mL conical tube, and again spun for 5 minutes at 1500 RPM. Cells were resuspended to the desired cell concentration in SCGM+1× cytokines (100 ng/mL SCF, 100 ng/mL TPO, 100 ng/mL FltL, and 30 ng/mL IL-3), and plated on a sterile non-adherent surface at 37° C. in a standard humidified tissue culture incubator (5% CO2).\n(§2) Pre-stimulated cells (Example 1) were counted after 18-24 hours of culture. The cells were collected and spun for 5 minutes at 1500 RPM. 1.2×10^6 pre-stimulated CD34^+ cells were resuspended in 60 uL 10× cytokines (1000 ng/mL SCF, 1000 ng/mL TPO, 1000 ng/mL FltL, and 300 ng/mL IL-3), 7.8 uL protamine sulfate, 111 uL viral supernatant, and 361.2 uL SCGM. 90 uL cell/virus suspension (about 200,000 cells) was added to each well of a standard non-adherent 96-well plate. dmPGE2 was added during this viral transduction step at a final concentration of 100 uM, 50 uM, 25 uM, 12.5 uM, 1 uM, or 0 uM.\nCells were incubated at 37° C. in a standard humidified tissue culture incubator (5% CO2).\nAliquots of 10 mM dmPGE2 in DMSO were prepared from 1 mg previously processed dmPGE2 (Cayman Chemicals). Briefly, air was pipetted into the vial of dmPGE2 until methyl acetate was evaporated. 263 uL DMSO was added to the PGE2 remaining in the vial, and aliquots of 25 uL were added to 1.5 mL Eppendorf tubes and stored at −80° C. 10× working stock solutions were prepared by serial dilution of dmPGE2 in SCGM, and were then added to cells at appropriate working concentrations, according to Table 2. Cells were then incubated at 37° C. in a standard humidified tissue culture incubator (5% CO2).\n(§3) After 24 hours of culture with virus and dmPGE2, cells were washed prior to subsequent functional validation assays. Washing was performed by transferring cells to a 96-well U-bottom plate and spinning for 5 minutes at 1500 RPM in a standard tabletop centrifuge. Media was aspirated and cells were resuspended in 200 uL SCGM. Cells were spun again for 5 minutes at 1500 RPM and media was aspirated. Cells were again resuspended in 200 uL SCGM then spun for 5 minutes at 1500 RPM, and again the media was aspirated. Particular functional validation assays are described below.\n(§4) Washed cells were resuspended in 200 uL SCGM+lx cytokines (as described in Example 1) and transferred to a standard 12-well non-adherent tissue culture plate containing an additional 800 uL SCGM+lx cytokines Cells were maintained for an additional 6 days in a standard humidified tissue culture incubator (5% CO2) and then subjected Vector Copy Number analysis (Example 5) and FACS analysis. For FACS analysis, cells were assayed for the presence of a virally-encoded transgene, green fluorescent protein (GFP). The frequency of the virally-labeled cells within the pool of cultured cells was quantified as the frequency of GFP+ cells within the population. The mean fluorescence intensity of labeled cells was quantified.\nTables 3A-C indicate the dose-response of dmPGE2 in promoting viral transduction of CD34+ cells for three separate experiments. CD34+ cells were thawed and pre-stimulated with SCF, TPO, FltL, and IL3, then transduced (A) with GFP+ lentivirus at a multiplicity of infection of 25, (B) with GFP+ lentivirus at a multiplicity of infection of 5, or (C) transduced with an ALD (ABCD1)-expressing lentivirus at a multiplicity of infection of 25. Cells were exposed to dmPGE2 during the viral transduction step (24-48 hours of culture). Cells were then washed and analyzed by flow cytometry and PCR after approximately 1 week in culture. […]"}, "CD34+ cells [2]": {"test_system": "CD34+ cells", "test": "Vector Copy Number analysis (qRT-PCR, viral LTR vs human beta-actin) after GFP+ lentivirus transduction", "assay_type": "cell-based", "method": "as §2, §3, §4\nBriefly, total genomic DNA was isolated from cells through standard protocols (for example, through DNEasy columns from Qiagen). Genomic DNA was subjected to quantitative real-time polymerase chain reaction (qRT-PCR) with TaqMan probes for viral LTR and human beta-actin. The Ct values for viral signal and beta-actin signal were normalized to a standardized control, and the number of viral copies per copy of beta actin were calculated. A linear relationship between the vector copy number and the mean fluorescence intensity (Example 4) was observed when a viral construct that encodes GFP was used.\n(§5) Tables 3A-C indicate the dose-response of dmPGE2 in promoting viral transduction of CD34+ cells for three separate experiments. CD34+ cells were thawed and pre-stimulated with SCF, TPO, FltL, and IL3, then transduced (A) with GFP+ lentivirus at a multiplicity of infection of 25, (B) with GFP+ lentivirus at a multiplicity of infection of 5, or (C) transduced with an ALD (ABCD1)-expressing lentivirus at a multiplicity of infection of 25. Cells were exposed to dmPGE2 during the viral transduction step (24-48 hours of culture). Cells were then washed and analyzed by flow cytometry and PCR after approximately 1 week in culture. The percentage of cells positive for GFP (A, B) or ALD (C) via FACS staining is indicated, along with the mean fluorescent intensity (MFI) and vector copy number (VCN) (A, B)."}, "CD34+ cells [3]": {"test_system": "CD34+ cells", "test": "FACS staining after transduction with ALD (ABCD1)-expressing lentivirus", "assay_type": "cell-based, human", "details": "ABCD1 lentivirus MOI 25", "method": "as §1, §2, §3, §4, §5"}, "[4]": {"details": "dmPGE2 12.5 uM during transduction, GFP lentivirus MOI 5"}, "[5]": {"details": "dmPGE2 12.5 uM during transduction, GFP lentivirus MOI 25"}, "[6]": {"details": "dmPGE2 25 uM during transduction, GFP lentivirus MOI 5"}, "[7]": {"details": "dmPGE2 25 uM during transduction, GFP lentivirus MOI 25"}, "[8]": {"details": "dmPGE2 50 uM during transduction, GFP lentivirus MOI 5"}, "[9]": {"details": "dmPGE2 50 uM during transduction, GFP lentivirus MOI 25"}, "[10]": {"details": "dmPGE2 100 uM during transduction, GFP lentivirus MOI 5"}, "[11]": {"details": "dmPGE2 100 uM during transduction, GFP lentivirus MOI 25"}},
  "data": [
    {"smiles": "CCCCC(C)(C)[C@H](O)/C=C/[C@H]1[C@H](O)CC(=O)[C@@H]1C/C=C\\CCCC(=O)O", "note": "[dmPGE2, 16,16-dimethyl PGE2]", "values": [
      {"measurement": "% Positive (GFP)", "setting": "CD34+ cells [1]; dmPGE2 12.5 uM during transduction (24-48 hours of culture), GFP lentivirus MOI 5", "result": 17.84, "unit": "%"},
      {"measurement": "% Positive (GFP)", "setting": "CD34+ cells [1]; dmPGE2 12.5 uM during transduction (24-48 hours of culture), GFP lentivirus MOI 25", "result": 54.71, "unit": "%"},
      {"measurement": "MFI", "setting": "CD34+ cells [1]; [4]", "result": "530,218.50"},
      {"measurement": "MFI", "setting": "CD34+ cells [1]; [5]", "result": "759,442.75"},
      {"measurement": "% Positive (GFP)", "setting": "CD34+ cells [1]; dmPGE2 25 uM during transduction (24-48 hours of culture), GFP lentivirus MOI 5", "result": 18.69, "unit": "%"},
      {"measurement": "% Positive (GFP)", "setting": "CD34+ cells [1]; dmPGE2 25 uM during transduction (24-48 hours of culture), GFP lentivirus MOI 25", "result": 59.99, "unit": "%"},
      {"measurement": "MFI", "setting": "CD34+ cells [1]; [6]", "result": "562,428.00"},
      {"measurement": "MFI", "setting": "CD34+ cells [1]; [7]", "result": "845,691.00"},
      {"measurement": "% Positive (GFP)", "setting": "CD34+ cells [1]; dmPGE2 50 uM during transduction (24-48 hours of culture), GFP lentivirus MOI 5", "result": 36.80, "unit": "%"},
      {"measurement": "% Positive (GFP)", "setting": "CD34+ cells [1]; dmPGE2 50 uM during transduction (24-48 hours of culture), GFP lentivirus MOI 25", "result": 67.62, "unit": "%"},
      {"measurement": "MFI", "setting": "CD34+ cells [1]; [8]", "result": "656,703.50"},
      {"measurement": "MFI", "setting": "CD34+ cells [1]; [9]", "result": "977,806.75"},
      {"measurement": "% Positive (GFP)", "setting": "CD34+ cells [1]; dmPGE2 100 uM during transduction (24-48 hours of culture), GFP lentivirus MOI 5", "result": 42.97, "unit": "%"},
      {"measurement": "% Positive (GFP)", "setting": "CD34+ cells [1]; dmPGE2 100 uM during transduction (24-48 hours of culture), GFP lentivirus MOI 25", "result": 81.53, "unit": "%"},
      {"measurement": "MFI", "setting": "CD34+ cells [1]; [10]", "result": "732,716.25"},
      {"measurement": "MFI", "setting": "CD34+ cells [1]; [11]", "result": "1,513,504.00"},
      {"measurement": "VCN", "setting": "CD34+ cells [2]; [4]", "result": 0.18},
      {"measurement": "VCN", "setting": "CD34+ cells [2]; [5]", "result": 1.5},
      {"measurement": "VCN", "setting": "CD34+ cells [2]; [6]", "result": 0.21},
      {"measurement": "VCN", "setting": "CD34+ cells [2]; [7]", "result": 1.7},
      {"measurement": "VCN", "setting": "CD34+ cells [2]; [8]", "result": 0.715},
      {"measurement": "VCN", "setting": "CD34+ cells [2]; [9]", "result": 2.2},
      {"measurement": "VCN", "setting": "CD34+ cells [2]; [10]", "result": 0.83},
      {"measurement": "VCN", "setting": "CD34+ cells [2]; [11]", "result": 3.55},
      {"measurement": "% Positive (ALD)", "setting": "CD34+ cells [3]; dmPGE2 1 uM during transduction (24-48 hours of culture)", "result": 34.13, "unit": "%"},
      {"measurement": "% Positive (ALD)", "setting": "CD34+ cells [3]; dmPGE2 12.5 uM during transduction (24-48 hours of culture)", "result": 45.36, "unit": "%"},
      {"measurement": "% Positive (ALD)", "setting": "CD34+ cells [3]; dmPGE2 25 uM during transduction (24-48 hours of culture)", "result": 43.76, "unit": "%"},
      {"measurement": "% Positive (ALD)", "setting": "CD34+ cells [3]; dmPGE2 50 uM during transduction (24-48 hours of culture)", "result": 56.10, "unit": "%"},
      {"measurement": "% Positive (ALD)", "setting": "CD34+ cells [3]; dmPGE2 100 uM during transduction (24-48 hours of culture)", "result": 72.26, "unit": "%"}
    ]}
  ]
}
